Assay results as given in patent US20230158063A1, “AIRWAY […] THERAPY TO TREAT VIRAL R[…]” (THE TRUSTEES OF INDIANA UNIVERSITY, priority 2020, published 2023).

Test system: primary normal human airway epithelial (HAE) cells
Experiment: Intracellular pH of HAE cells by pH-sensitive dye fluorescence microscopy
Format: cell-based
Conditions: HAE cells pre-loaded with 1.25 μM BCECF-AM; normalized to pre-treatment; n=3; ZnCl2 at 100 μM

## [Cl-].[Cl-].[Zn+2] [ZnCl2, zinc chloride]
  BCECF-AM fluorescence intensity (increases as pH increases): essentially eliminating fluorescence
